# Test results as given in paper PMC12459314, “Subcutaneous administration of a novel TRPM8 antagonist reverses cold hypersensitivity while attenuating the drop in core body temperature” (British journal of pharmacology, 2024).
# Legend:
# human TRPM8 = test system: human TRPM8; parameters: method as in Journigan et al., 2020; details: ref Journigan et al., 2020, cited from earlier work
# [1] = Partition coefficient (logD), shake flask method; format: physicochemical; details: n-octanol / pH 7.4 phosphate buffer, pH 7.4
# Procedure: The partition coefficient (logD) at pH 7.4 of VBJ103 was determined using the shake flask method by Absorption Systems (Exton, PA, USA). The buffer was prepared by combining 50 ml of 0.2-M solution of KH2PO4 with 150 ml of dH2O and then adjusting to pH 7.4 with 10-N NaOH. In a single incubation, 15 μl of a 10-mM DMSO solution of each test article was added to test tubes which contained 0.75 ml of n-octanol and 0.75 ml of pH 7.4 phosphate buffer. Testosterone was also introduced to each tube as an internal control, also at a dosing concentration of 100 μM. These samples were gently mixed on a benchtop rotator for 1 h at room temperature. The tubes were then removed from the rotator, and the aqueous and organic phases were allowed to separate for 1 h. An aliquot of the organic layer was taken and diluted 200-fold into a mixture of 1:1 buffer: acetonitrile (ACN). An aliquot of the aqueous layer was taken and diluted 2-fold, 10-fold and 200-fold into a mixture of 1:1 buffer: ACN. All samples were assayed by LC–MS/MS on a Thermo BDS Hypersil C18 column (30 × 2.1 mm, 3 μm) using electrospray ionization, as previously reported ([Journigan et al., 2020]).
# human TRPV1 = biological target: T1, human TRPV1 (Homo sapiens, UniProt Q8NER1); experiment: FlexStation Ca2+ flux assay in HEK293T cells transfected with human TRPV1; format: cell-based
# T1 construct: expressed in transfected cells; host or cells: HEK293T
# T1 sequence (Q8NER1 whole entry): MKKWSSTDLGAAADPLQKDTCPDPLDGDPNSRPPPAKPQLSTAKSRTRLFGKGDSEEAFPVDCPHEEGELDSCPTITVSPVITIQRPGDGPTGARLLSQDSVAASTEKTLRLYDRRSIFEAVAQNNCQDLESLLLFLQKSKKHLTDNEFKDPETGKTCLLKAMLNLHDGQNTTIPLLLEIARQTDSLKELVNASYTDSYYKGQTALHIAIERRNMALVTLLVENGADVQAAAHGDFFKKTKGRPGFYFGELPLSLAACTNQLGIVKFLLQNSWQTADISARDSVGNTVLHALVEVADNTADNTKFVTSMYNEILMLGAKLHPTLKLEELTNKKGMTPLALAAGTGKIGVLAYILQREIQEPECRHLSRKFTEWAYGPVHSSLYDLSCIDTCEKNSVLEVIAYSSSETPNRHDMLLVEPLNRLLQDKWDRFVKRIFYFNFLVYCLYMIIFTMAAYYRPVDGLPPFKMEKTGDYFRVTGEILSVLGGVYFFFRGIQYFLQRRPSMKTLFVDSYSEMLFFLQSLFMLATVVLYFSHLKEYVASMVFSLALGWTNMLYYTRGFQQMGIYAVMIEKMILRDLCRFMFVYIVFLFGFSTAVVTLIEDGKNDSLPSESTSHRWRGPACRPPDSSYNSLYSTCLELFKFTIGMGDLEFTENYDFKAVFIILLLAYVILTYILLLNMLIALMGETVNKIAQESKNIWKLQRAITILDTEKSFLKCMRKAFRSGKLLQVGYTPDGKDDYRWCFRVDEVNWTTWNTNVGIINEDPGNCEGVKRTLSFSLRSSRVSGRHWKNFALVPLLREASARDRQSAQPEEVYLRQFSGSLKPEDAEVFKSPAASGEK
# Procedure: The human embryonic kidney cell line (HEK293T, CRL-1573, RRID: CVCL_0045) was purchased from the American Type Culture Collection (Manassas, USA) and was maintained in Dulbecco’s Minimal Essential Medium (DMEM, Cellgro10013CV, Corning, Tewksbury, USA) that was supplemented with 10% fetal bovine serum (Gemini Bio-products), 2-mM L-glutamine (Invitrogen) and 100 U/mL penicillin and streptomycin (Invitrogen) and cultured in an incubator at 37°C, 5% CO2 and 95% humidity. Human TRPV1 and TRPA1 plasmid DNA (gift from D. Julius) were transiently bulk transfected individually into HEK293T cells using the FuGene HD transfection reagent (TFR, Promega, Madison, WI, USA) at a 3:1 ratio (TFR:DNA). […] The plate was transferred to a FlexStation 3 microplate reader. Relative fluorescence units (RFUs) (Ex. 485 nm, Em 525 nm) were then acquired at 37°C in the kinetic mode. The run time for the agonist (1st) and antagonist (2nd) reads were 60 s each, for a total run time of 120 s, with an interval of 3.1 s between reads in the same well to allow all 16 wells in a column to be read sequentially, and the photomultiplier tube (PMT) level was set at medium, with 6 flashes per read. Baseline Fluo-6 RFUs were acquired for 18 s prior to the addition of compound in both the agonist and antagonist reads. For the first addition agonist read, the volume in the well was 50 μl, the pipette height was set at 40 μl, and 12.5 μl of the test compound was delivered at a speed of 2 μl·s^−1 after the baseline RFU’s acquisition period at 19 s, and the RFUs were acquired for an additional 41 s. For the second addition antagonist read, the volume in the well was 62.5 μl, the pipette height was set at 40 μl, and 12.5 μl of an EC80 agonist concentration was delivered at a speed of 2 μl/s after the baseline RFU’s acquisition period at 19 s, and the RFUs were acquired for an additional 41 s. […]
compound,measurement,setting,value
"O=C(NC1CCC2(CCCC2)CC1)c1ccc(-c2ccccc2)cc1 [VBJ103, N-(Spiro[4.5]decan-8-yl)-[1,1′-biphenyl]-4-carboxamide]",IC50,human TRPM8; against menthol-stimulated currents,64 ± 2 nM
same,selectivity for human TRPM8 versus TRPA1 and TRPV1,human TRPM8; heterologously expressed channels,~ 10 fold
same,logD at 1 h,[1],3.21
same,agonist activity at TRPV1,human TRPV1; compound alone,no apparent agonist activity
same,inhibition of the Ca2+ signal at TRPV1,human TRPV1; evoked with an EC80 concentration (0.1 μM) of capsaicin,Nor was there a detectable inhibition
